Results on 64 compounds are retold here after PubChem BioAssay AID624452 (Sanford-Burnham Center for Chemical Genomics, 2012).

The test system of this data set is human liver microsomes, compound remaining, LC-MS. Put plainly: human microsomal compound turnover – biochemical, with and without NADPH, LC-MS, set 2, ADME assay (AID 624452).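 Also: compound left measured after 60 min microsomal incubation at 37 °C.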 As to conditions: at 1 µM.
`CCCC(=O)Nc1cccc(NC(=O)c2ccccc2Br)c1` had a percent remaining with NADPH of 46%.

`COc1ccc(OC)c(-c2nnc3n2N=C(c2ccc(OC)c(OC)c2)CS3)c1` yielded a percent remaining with NADPH of 5.35%.

For `O=C1NCCCc2c1oc1ccc(O)cc21`, the percent remaining with NADPH was 62.1%.

Regarding `COc1ccc(Sc2ccc(NC(=O)c3ccccc3Cl)cc2C#N)cc1`, the percent remaining with NADPH was found to be 27.3%.

`CC(C)C(=O)NC(c1ccco1)c1ccc2cccnc2c1O` (centres undefined) yielded a percent remaining with NADPH of 49.2%.

As for `O=C(c1ccccn1)N(Cc1cccs1)C1(C(=O)NC2CCCCC2)CCCCC1`, the percent remaining with NADPH is 0.01%.

`O=C(O)c1ccccc1OCc1ccccc1Br` displayed a percent remaining with NADPH of 67.3%.

For `c1ccc(-c2nnc(N3CCOCC3)nc2-c2ccccc2)cc1`, the percent remaining with NADPH is 31.1%.

`CCOC(=O)C(C)Oc1cccc2c(=O)n(CC(=O)Nc3ccc4c(c3)OCCO4)ccc12` (centres undefined): the percent remaining with NADPH came out at 68.7%.

Compound `CCc1nnc(NC(=O)c2ccc(NS(=O)(=O)c3ccccc3)cc2)s1` displayed a percent remaining with NADPH of 69.2%.

`Cc1cc(C(=O)CN2C(=O)CCC2=O)c(C)n1Cc1ccccc1` had a percent remaining with NADPH of 34.5%.

`Cc1cc(C)nc(-n2nc(C)c(Sc3ccc(F)cc3)c2N)n1` returned a percent remaining with NADPH of 13.4%.

`Cn1cnc([N+](=O)[O-])c1Sc1ncnc2nc[nH]c12` gave a percent remaining with NADPH of 66.6%.

Turning to `O=S1(=O)Nc2c(ccc3cccnc23)-c2ccccc21`, the percent remaining with NADPH was 64.4%.

On to `Cc1cc2c(s1)c1cnn(Cc3ccccc3F)c(=O)c1n2C`, for which the percent remaining with NADPH turned out to be 0.06%.

Take `CCN1CCN(c2nc3ccccc3nc2C(C#N)C(=O)OC2CCCCC2)CC1` (centres undefined): the percent remaining with NADPH stood at 14.2%.

Consider `O=C(COC(=O)C12CC3CC(CC(C3)C1)C2)NCc1ccco1`, for which the percent remaining with NADPH worked out at 84.8%.

Turning to `O=C(O)CCC(NS(=O)(=O)c1ccc(-c2ccccc2)cc1)C(=O)O` (centres undefined), the percent remaining with NADPH is 75.8%.

`Cc1ccc(-n2c(N)c(C#N)c(-c3ccccc3)c(C#N)c2=O)cc1` gave a percent remaining with NADPH of 64%.

As for `COc1ccc(S(=O)(=O)N2CCN(S(=O)(=O)c3ccc4c(c3)OCCO4)CC2)cc1`, the percent remaining with NADPH is 0.64%.

As for `O=C(COc1ccccc1Br)NCCc1nc2ccccc2[nH]1`, the percent remaining with NADPH was 0.04%.

Take `C=CCn1c(SCC(=O)c2ccc(O)c(O)c2)nnc1-c1ccccc1OC`: the percent remaining with NADPH turned out to be 30.6%.

For `Cn1nnnc1Sc1ncnc2scc(-c3ccccc3)c12`, the percent remaining with NADPH was 28.1%.

In turn, `Cc1cccc(-n2cnc3cc(C(=O)N4CCCCC4)ccc32)c1` had a percent remaining with NADPH of 37.9%.

In turn, `CC1CCCN(C(C(=O)Nc2ccc3c(c2)OCCO3)c2ccccc2)C1` (centres undefined) returned a percent remaining with NADPH of 4.43%.

Compound `O=C(O)c1cccnc1SCCc1ccccc1` came in with a percent remaining with NADPH of 61.4%.

`CSc1nc(-c2ccc(C)cc2)nc(C(Cl)Cl)n1`: the percent remaining with NADPH was determined as 10.8%.

In turn, `Cc1ccc(S(=O)(=O)NCc2ccc(C(=O)NCCN(Cc3ccccc3)C(C)C)cc2)cc1` had a percent remaining with NADPH of 0.01%.

On to `CCc1oc2ccccc2c1C(=O)c1cc(Br)c(O)c(Br)c1`, for which the percent remaining with NADPH was found to be 20.3%.

For the compound `Brc1cc2c(cc1C1Nc3ccccc3C3C=CCC31)OCO2` (centres undefined), the percent remaining with NADPH stood at 28.7%.

Consider `Cc1ccccc1N1CCN(c2ncnc3c2cnn3Cc2ccc(Cl)cc2)CC1`, for which the percent remaining with NADPH came to 30.9%.

As to `Cc1ccc(C)c(NS(=O)(=O)c2cc(C(=O)Nc3ccccc3-c3ccccc3)ccc2Cl)c1`, the percent remaining with NADPH amounted to 2.07%.

With `Cc1ccc(S(=O)(=O)C(c2ccccc2)c2c(C)noc2C)cc1` (centres undefined), the percent remaining with NADPH was 0.08%.

`Cc1nc(SCc2nc3ccccc3[nH]2)c2oc3ccccc3c2n1`: the percent remaining with NADPH came to 0.22%.

`O=c1oc2c(O)c(O)cc3c(=O)oc4c(O)c(O)cc1c4c23` registered a percent remaining with NADPH of 73.1%.

`COc1cccc(-c2nc(-c3ccc(NC(=O)Cc4ccccc4OC)cc3)no2)c1` registered a percent remaining with NADPH of 11.1%.

In the case of `CS(=O)(=O)c1ccc(C(=O)OCC(=O)NC23CC4CC(CC(C4)C2)C3)cc1[N+](=O)[O-]`, the percent remaining with NADPH is 5.75%.

For `CCOc1ccc(-c2nc(-c3ccncc3)no2)cc1OCC`, the percent remaining with NADPH was determined as 25.1%.

In turn, `CN(C)c1oc(-c2ccc(OCc3ccc(Cl)cc3)cc2)nc1C#N` came in with a percent remaining with NADPH of 35.5%.

The compound `CC[C@H]1CN2CCc3cc(OC)c(OC)cc3[C@@H]2C[C@@H]1C[C@H]1NCCc2cc(OC)c(OC)cc21` showed a percent remaining with NADPH of 45.4%.

`O=c1[nH]c2c(s1)C(c1cccnc1)C1C3CCC(C3)C1S2` (centres undefined) registered a percent remaining with NADPH of 7.76%.

For `NC(=O)C1CCN(c2nc(-c3ccc(Br)cc3)cs2)CC1`, the percent remaining with NADPH came out at 56.9%.

The compound `CN(C)c1nc(N)nc(CSc2nnnn2-c2cccc3ccccc23)n1` had a percent remaining with NADPH of 0.13%.

In the case of `CCCOc1ccc(-c2nc(OC)c3ccccc3n2)cc1`, the percent remaining with NADPH was determined as 48.3%.

Regarding `CN(C)C1=C(Cl)C(=O)N(c2ccc(Cl)c(Cl)c2)C1=O`, the percent remaining with NADPH was 0.26%.

`Cc1ccnc(NC(=O)CCCOc2cc(=O)n(C)c3ccccc23)c1` yielded a percent remaining with NADPH of 0.99%.

For `COc1nc(-c2ccccc2)nnc1-c1ccccc1`, the percent remaining with NADPH came to 8.41%.

In the case of `N#Cc1ccccc1CSc1nc2ncc(Br)cc2[nH]1`, the percent remaining with NADPH was determined as 29.7%.

`Oc1cc(O)cc(/C=C/c2ccc(O)c(O)c2)c1` had a percent remaining with NADPH of 45.9%.

For the compound `COc1ccc(C2c3c(ncn(CCN4CCOCC4)c3=N)Oc3ccc4ccccc4c32)cc1OC` (centres undefined), the percent remaining with NADPH was 7.15%.

As for `O=[N+]([O-])c1ccc(CN2CCOCCOCCN(Cc3ccc([N+](=O)[O-])cc3)CCOCC2)cc1`, the percent remaining with NADPH turned out to be 0.31%.

`c1ccc2c(Nc3nnc(-c4ccncc4)s3)cccc2c1` displayed a percent remaining with NADPH of 8.76%.

Regarding `O=S(=O)(NC1CCCCC1N1CCOCC1)c1ccc(Cl)cc1` (centres undefined), the percent remaining with NADPH worked out at 0.11%.

As for `O=C(CSc1cccc2cccnc12)N1CCCC1`, the percent remaining with NADPH stood at 47.2%.

`Cc1ccc(S(=O)(=O)n2c(N)nc3ccccc32)cc1` gave a percent remaining with NADPH of 21%.

As for `O=C(O)c1ccc(N2C(=O)/C(=C/c3ccc(-c4ccc([N+](=O)[O-])cc4)o3)C=C2c2ccccc2)cc1`, the percent remaining with NADPH is 67.9%.

In turn, `CCCn1ncc(CN2CCCC(C(=O)c3cccc(OC(C)C)c3)C2)c1C` (centres undefined) came in with a percent remaining with NADPH of 1.55%.

Regarding `N#C/C(=C\c1ccc([N+](=O)[O-])o1)c1nc2ccccc2[nH]1`, the percent remaining with NADPH worked out at 0.29%.

The compound `COc1ccc(OC)c(S(=O)(=O)Nc2cnc3ccccc3c2)c1` showed a percent remaining with NADPH of 25.9%.

Turning to `c1ccc(CC2CCN(c3ncnc4sccc34)CC2)cc1`, the percent remaining with NADPH is 9.66%.

As to `Cc1cc(-c2nnc3n2CCCCC3)c(C)n1-c1ccccc1`, the percent remaining with NADPH stood at 25.2%.

In the case of `Cc1ccc(NS(=O)(=O)c2ccc3c(c2)CCC(=O)N3)cc1C`, the percent remaining with NADPH amounted to 6.36%.

Take `O=C1C2CC=CCC2C(=O)N1c1n[nH]c(-c2ccccc2)n1` (centres undefined): the percent remaining with NADPH turned out to be 66.9%.

`COc1ccccc1N(/N=C1\Sc2ccccc2C1=O)C(C)=O` displayed a percent remaining with NADPH of 0.32%.
